According to patent US20200384064A1, “COMPOSITIONS AND METHODS USING HIGH PROTEIN FOR INDUCTION OF AUTOPHAGY” (SOCIETE DES PRODUiTS NESTLE S.A., priority 2017, published 2020):

System: LC3 positive punctae in embryo muscles
Test: LC3 positive punctae count in muscles of transgenic LC3-ZsGreen zebrafish embryos
Assay type: in vivo
Experimental: Autophagy was measured by counting the number of LC3 positive punctae in embryo muscles, normalized by total area. A zebrafish autophagy reporter has been generated by stable expression of the LC3 protein fused to ZsGreen under the control of a skeletal muscle specific promoter, hereafter LC3-ZsGreen. Embryos from outcrossed transgenic zebrafish have been raised at 28° C. under standard laboratory conditions and have been treated at 48 h post-fertilization in 96 well plates (n=24). After 16 hours of treatment embryos were anesthetized with 0.016% tricaine and imaged with ImageXpress confocal system at 20× magnification (Molecular Devices). After acquisition embryos were further treated with NH4Cl 100 mM for 4 h to block LC3 degradation and imaged again. Z stack images were captured for each embryo and maximal projection images were produced. Number of LC3 punctae have been calculated with MetaXpress software (Moleculare Devices) and normalized by fish area.

SMILES: CC(C)[C@H](N)C(=O)O [Valine, valine]
- Number of LC3 positive punctae in embryo muscles, normalized by total area (500 μM in fish water, 16 hours of treatment from 48 h post-fertilization): induced an increase of LC3 positive punctae
- Autophagic flux (LC3 punctae in presence of the lysosomal inhibitor NH4Cl) (500 μM, then NH4Cl 100 mM for 4 h): increase of autophagic flux
